Like-named read-outs stand apart in the source and are kept apart here.
How the values were obtained:
[1] = test system: Key Grass and Sedge Weeds as well as Grass Crops; experiment: Post-emergent Test II herbicidal activity (Table 6); type: in vivo; settings: post-emergence, 336 h; for pest or weed control at 70 g/ha: application rate 70 g ai/ha; for pest or weed control at 140 g/ha: application rate 140 g ai/ha
Summary of the method: (§1)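 Foliar application at 187 L/ha to greenhouse-grown seedlings (first or second true leaf); subirrigation thereafter. Visual 0–100% injury at 14 d relative to untreated plants.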

[2] = test system: Key Broadleaf Weed and Crop Species; experiment: Post-emergent Test II herbicidal activity (Table 5); type: in vivo; settings: post-emergence, 336 h, post-emergent, 14 days after application; for pest or weed control at 70 g/ha: 70 g ai/ha
Summary of the method: as §1

[3] = CYPES: yellow nutsedge (Cyperus esculentus), read-out: Visual Growth Reduction (%) 14 Days After Application, CYPES
[4] = DIGSA: crabgrass (Digitaria sanguinalis), read-out: Visual Growth Reduction (%) 14 Days After Application, DIGSA
[5] = ECHCG: barnyardgrass (Echinochloa crus-galli), read-out: Visual Growth Reduction (%) 14 Days After Application, ECHCG
[6] = ORYSA: rice (Oryza sativa), read-out: Visual Growth Reduction (%) 14 Days After Application, ORYSA
[7] = SETFA: giant foxtail (Setaria faberi), read-out: Visual Growth Reduction (%) 14 Days After Application, SETFA
[8] = SORVU: grain sorghum (Sorghum vulgare), read-out: Visual Growth Reduction (%) 14 Days After Application, SORVU
[9] = TRZSS (wheat, Triticum aestivum), read-out: Visual Growth Reduction (%) 14 Days After Application, TRZSS
[10] = ZEAMX: maize, corn (Zea mays), read-out: Visual Growth Reduction (%) 14 Days After Application, ZEAMX
[11] = ABUTH: velvetleaf (Abutilon theophrasti), read-out: Visual Growth Reduction (%) 14 Days After Application ABUTH
[12] = AMARE: redroot pigweed (Amaranthus retroflexus), read-out: Visual Growth Reduction (%) 14 Days After Application AMARE
[13] = BRSNN: oilseed-rape, canola (Brassica napus), read-out: Visual Growth Reduction (%) 14 Days After Application BRSNN
[14] = CHEAL: lambsquarters (Chenopodium album), read-out: Visual Growth Reduction (%) 14 Days After Application CHEAL
[15] = EPHHL: wild poinsettia (Euphorbia heterophylla), read-out: Visual Growth Reduction (%) 14 Days After Application EPHHL
[16] = HELAN: sunflower (Helianthus annuus), read-out: Visual Growth Reduction (%) 14 Days After Application HELAN
[17] = VIOTR: wild pansy (Viola tricolor), read-out: Visual Growth Reduction (%) 14 Days After Application VIOTR

| SMILES | pest or weed control at 70 g/ha [1, 3] | pest or weed control at 140 g/ha [1, 3] | pest or weed control at 70 g/ha [1, 4] | pest or weed control at 140 g/ha [1, 4] | pest or weed control at 70 g/ha [1, 5] | pest or weed control at 140 g/ha [1, 5] | pest or weed control at 70 g/ha [1, 6] | pest or weed control at 140 g/ha [1, 6] | pest or weed control at 70 g/ha [1, 7] | pest or weed control at 140 g/ha [1, 7] | pest or weed control at 70 g/ha [1, 8] | pest or weed control at 140 g/ha [1, 8] | pest or weed control at 70 g/ha [1, 9] | pest or weed control at 140 g/ha [1, 9] | pest or weed control at 70 g/ha [1, 10] | pest or weed control at 140 g/ha [1, 10] | pest or weed control at 70 g/ha [2, 11] | pest or weed control at 70 g/ha [2, 12] | pest or weed control at 70 g/ha [2, 13] | pest or weed control at 70 g/ha [2, 14] | also measured |
| --- | --- | --- | --- | --- | --- | --- | --- | --- | --- | --- | --- | --- | --- | --- | --- | --- | --- | --- | --- | --- | --- |
| COC(=O)c1nc(-c2cc(F)c(C#N)cc2F)nc(N)c1OC [Compound 208] | 0 to 29% | 0 to 29% | 0 to 29% | 0 to 29% | 0 to 29% | 0 to 29% | 0 to 29% | 0 to 29% | 0 to 29% | 0 to 29% | 0 to 29% | 0 to 29% | 0 to 29% | 0 to 29% | 0 to 29% | 0 to 29% | 0 to 29% | 0 to 29% | 0 to 29% | 0 to 29% | pest or weed control at 140 g/ha ([2]; ABUTH: velvetleaf (Abutilon theophrasti), 140 g ai/ha, read-out: Visual Growth Reduction (%) 14 Days After Application ABUTH): 0 to 29%; pest or weed control at 140 g/ha ([2]; AMARE: redroot pigweed (Amaranthus retroflexus), 140 g ai/ha, read-out: Visual Growth Reduction (%) 14 Days After Application AMARE): 0 to 29%; pest or weed control at 140 g/ha ([2]; BRSNN: oilseed-rape, canola (Brassica napus), 140 g ai/ha, read-out: Visual Growth Reduction (%) 14 Days After Application BRSNN): 0 to 29%; pest or weed control at 140 g/ha ([2]; CHEAL: lambsquarters (Chenopodium album), 140 g ai/ha, read-out: Visual Growth Reduction (%) 14 Days After Application CHEAL): 0 to 29%; pest or weed control at 70 g/ha [2, 15]: 30 to 44%; pest or weed control at 140 g/ha ([2]; EPHHL: wild poinsettia (Euphorbia heterophylla), 140 g ai/ha, read-out: Visual Growth Reduction (%) 14 Days After Application EPHHL): 45 to 59%; pest or weed control at 70 g/ha [2, 16]: 0 to 29%; pest or weed control at 140 g/ha ([2]; HELAN: sunflower (Helianthus annuus), 140 g ai/ha, read-out: Visual Growth Reduction (%) 14 Days After Application HELAN): 45 to 59%; pest or weed control at 70 g/ha [2, 17]: 0 to 29%; pest or weed control at 140 g/ha ([2]; VIOTR: wild pansy (Viola tricolor), 140 g ai/ha, read-out: Visual Growth Reduction (%) 14 Days After Application VIOTR): 0 to 29%; melting point: 165 to 166.5 °C |
| COC(=O)c1nc(-c2cc(F)c(C)cc2F)cc(N)c1Cl [Compound 179] | 0 to 29% | 0 to 29% | 0 to 29% | 0 to 29% | 0 to 29% | 30 to 44% | 0 to 29% | 0 to 29% | 0 to 29% | 0 to 29% | 0 to 29% | 45 to 59% | 0 to 29% | 0 to 29% | 0 to 29% | 0 to 29% | 95 to 100% | 95 to 100% | 30 to 44% | 95 to 100% | pest or weed control at 140 g/ha ([2]; ABUTH: velvetleaf (Abutilon theophrasti), application rate 140 g ai/ha, read-out: Visual Growth Reduction (%) 14 Days After Application, ABUTH): 95 to 100%; pest or weed control at 140 g/ha ([2]; AMARE: redroot pigweed (Amaranthus retroflexus), application rate 140 g ai/ha, read-out: Visual Growth Reduction (%) 14 Days After Application, AMARE): 95 to 100%; pest or weed control at 140 g/ha ([2]; BRSNN: oilseed-rape, canola (Brassica napus), application rate 140 g ai/ha, read-out: Visual Growth Reduction (%) 14 Days After Application, BRSNN): 45 to 59%; pest or weed control at 140 g/ha ([2]; CHEAL: lambsquarters (Chenopodium album), application rate 140 g ai/ha, read-out: Visual Growth Reduction (%) 14 Days After Application, CHEAL): 95 to 100%; pest or weed control at 70 g/ha [2, 15]: 95 to 100%; pest or weed control at 140 g/ha ([2]; EPHHL: wild poinsettia (Euphorbia heterophylla), application rate 140 g ai/ha, read-out: Visual Growth Reduction (%) 14 Days After Application, EPHHL): 95 to 100%; pest or weed control at 70 g/ha [2, 16]: 85 to 94%; pest or weed control at 140 g/ha ([2]; HELAN: sunflower (Helianthus annuus), application rate 140 g ai/ha, read-out: Visual Growth Reduction (%) 14 Days After Application, HELAN): 85 to 94%; pest or weed control at 70 g/ha [2, 17]: 0 to 29%; pest or weed control at 140 g/ha ([2]; VIOTR: wild pansy (Viola tricolor), application rate 140 g ai/ha, read-out: Visual Growth Reduction (%) 14 Days After Application, VIOTR): 0 to 29%; melting point: 137.2 to 138.8 °C |

From patent US9113629B2, “4-amino-6-(4-substituted-phenyl)-picolinates and 6-amino-2-(4-substituted-phenyl)-pyrimidine-4-carboxylates and their use as herbicides” (DOW AGROSCIENCES LLC, priority 2013, dated 2015)
